Test results as given in the NIST ThermoML archive (doi:10.1016/j.fluid.2012.08.009).
± gives the expanded uncertainty stated by the source.

Settings: Liquid; for vapor or sublimation pressure: Ebulliometric method (Recirculating still); for Normal boiling temperature: Siwoloboff method

CCO[Si](C)(OCC)c1cccc(C)c1 [diethoxy(methyl)(m-tolyl)silane]
Settings | Normal boiling temperature [°C] | vapor or sublimation pressure [kPa]
– | 235.8 ± 1.6 | –
391.91 K | – | 2 ± 0.04
400.12 K | – | 3 ± 0.05
406.47 K | – | 4 ± 0.07
411.84 K | – | 5 ± 0.09
416.3 K | – | 6 ± 0.11
420.23 K | – | 7 ± 0.13
426.81 K | – | 9 ± 0.16
432.31 K | – | 11 ± 0.2
439.13 K | – | 14 ± 0.25
444.83 K | – | 17 ± 0.31
449.84 K | – | 20 ± 0.36
454.26 K | – | 23 ± 0.41
458.23 K | – | 26 ± 0.47
461.73 K | – | 29 ± 0.52
465.1 K | – | 32 ± 0.58
468.22 K | – | 35 ± 0.63
471.02 K | – | 38 ± 0.68
473.69 K | – | 41 ± 0.74
476.21 K | – | 44 ± 0.79
478.56 K | – | 47 ± 0.85
480.85 K | – | 50 ± 0.9
483.08 K | – | 53 ± 0.95
485.67 K | – | 57 ± 1
488.08 K | – | 61 ± 1.1

CN1CCCC1=O [N-methylpyrrolidone]
Settings | Normal boiling temperature [°C] | vapor or sublimation pressure [kPa]
– | 202.14 ± 1.6 | –
380.76 K | – | 4.742 ± 0.086
388.05 K | – | 6.361 ± 0.12
400.39 K | – | 10.29 ± 0.19
411.34 K | – | 15.22 ± 0.27
420.9 K | – | 20.97 ± 0.38
432.23 K | – | 30.08 ± 0.54
441.78 K | – | 39.96 ± 0.72
451.08 K | – | 52.18 ± 0.94
457.44 K | – | 62.11 ± 1.1
475.79 K | – | 99.4 ± 1.8

CCO[Si](C)(OCC)c1ccccc1C [diethoxy(methyl)(o-tolyl)silane]
Settings | Normal boiling temperature [°C] | vapor or sublimation pressure [kPa]
– | 239.83 ± 1.6 | –
393.45 K | – | 2 ± 0.04
401.5 K | – | 3 ± 0.05
407.98 K | – | 4 ± 0.07
413.33 K | – | 5 ± 0.09
417.79 K | – | 6 ± 0.11
421.8 K | – | 7 ± 0.13
431.54 K | – | 10 ± 0.18
439.05 K | – | 13 ± 0.23
445.46 K | – | 16 ± 0.29
450.67 K | – | 19 ± 0.34
455.4 K | – | 22 ± 0.4
459.55 K | – | 25 ± 0.45
463.3 K | – | 28 ± 0.5
466.73 K | – | 31 ± 0.56
469.94 K | – | 34 ± 0.61
472.92 K | – | 37 ± 0.67
475.72 K | – | 40 ± 0.72
478.35 K | – | 43 ± 0.77
480.89 K | – | 46 ± 0.83
483.26 K | – | 49 ± 0.88

CCO[Si](C)(OCC)c1ccc(C)cc1 [diethoxy(methyl)(p-tolyl)silane]
Settings | Normal boiling temperature [°C] | vapor or sublimation pressure [kPa]
– | 239.57 ± 1.6 | –
394.65 K | – | 2 ± 0.04
402.86 K | – | 3 ± 0.05
409.39 K | – | 4 ± 0.07
414.72 K | – | 5 ± 0.09
419.19 K | – | 6 ± 0.11
423.25 K | – | 7 ± 0.13
429.82 K | – | 9 ± 0.16
435.35 K | – | 11 ± 0.2
442.33 K | – | 14 ± 0.25
448.16 K | – | 17 ± 0.31
453.16 K | – | 20 ± 0.36
457.61 K | – | 23 ± 0.41
461.72 K | – | 26 ± 0.47
465.36 K | – | 29 ± 0.52
468.68 K | – | 32 ± 0.58
471.81 K | – | 35 ± 0.63
474.73 K | – | 38 ± 0.68
477.27 K | – | 41 ± 0.74
479.82 K | – | 44 ± 0.79
482.24 K | – | 47 ± 0.85
484.62 K | – | 50 ± 0.9
486.87 K | – | 53 ± 0.95
